According to PubChem BioAssay AID248 (DTP/NCI, 2004):
Inconclusive results and toxic doses are left out. No stated cut-off is given here; in the data, active means T/C of 150% or more; inactive means T/C below 125%.

System: L1210 leukemia ip in BDF1 mice, survival T/C
Experiment: NCI In Vivo Anticancer Drug Screen. Data for tumor model L1210 Leukemia (intraperitoneal) in B6D2F1 (BDF1) mice
Conditions: endpoint: mean survival time, higher = longer survival
In short: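 Survival endpoint. Drug-treated group vs vehicle group, expressed as T divided by C. Tumor passaged by transplantation.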

[1] = dose: 50.0 mg/kg/injection, schedule: Q01DX009 (ip), vehicle: saline with Tween-80
[2] = dose: 100.0 mg/kg/injection, schedule: Q01DX009 (ip), vehicle: saline with Tween-80
[3] = dose: 100.0 mg/kg/injection, schedule: Q04DX003 (ip), vehicle: saline with Tween-80
[4] = dose: 200.0 mg/kg/injection, schedule: Q01DX009 (ip), vehicle: saline with Tween-80
[5] = dose: 200.0 mg/kg/injection, schedule: Q04DX003 (ip), vehicle: saline with Tween-80
[6] = dose: 400.0 mg/kg/injection, schedule: Q04DX003 (ip), vehicle: saline with Tween-80
[7] = dose: 100.0 mg/kg/injection, schedule: Q01DX009 (ip), vehicle: Klucel (hydroxypropylcellulose) (HPC)
[8] = dose: 200.0 mg/kg/injection, schedule: Q01DX009 (ip), vehicle: Klucel (hydroxypropylcellulose) (HPC)
[9] = dose: 400.0 mg/kg/injection, schedule: Q01DX009 (ip), vehicle: saline with Tween-80
[10] = dose: 100.0 mg/kg/injection, schedule: Q01DX001 (ip), vehicle: saline
[11] = dose: 200.0 mg/kg/injection, schedule: Q01DX001 (ip), vehicle: saline
[12] = dose: 400.0 mg/kg/injection, schedule: Q01DX001 (ip), vehicle: saline

Measured: T/C

S=c1[nH]c2nc(Cl)c(Cl)nc2[nH]1
inactive: [1] 95 % of control | [2] 91 % of control | [3] 97 % of control | [4] 100 % of control | [5] 102 % of control

COc1ccc(Nc2nc(N)nc(CNc3ccc(Cl)cc3)n2)cc1
inactive: [3] 98 % of control | [5] 103 % of control | [6] 98 % of control

CC(=O)OC1CCC(NC(=O)NCCF)CC1 (stereo not given)
inactive: dose: 100.0 mg/kg/injection, schedule: Q01DX001 (ip), vehicle: other 98 % of control | dose: 200.0 mg/kg/injection, schedule: Q01DX001 (ip), vehicle: other 104 % of control | dose: 400.0 mg/kg/injection, schedule: Q01DX001 (ip), vehicle: other 115 % of control

CSC1CCCC(=O)C1 (stereo not given)
inactive: [7] 98 % of control | dose: 100.0 mg/kg/injection, schedule: Q04DX003 (ip), vehicle: Klucel (hydroxypropylcellulose) (HPC) 96 % of control | [8] 101 % of control | dose: 200.0 mg/kg/injection, schedule: Q04DX003 (ip), vehicle: Klucel (hydroxypropylcellulose) (HPC) 97 % of control | dose: 400.0 mg/kg/injection, schedule: Q01DX009 (ip), vehicle: Klucel (hydroxypropylcellulose) (HPC) 96 % of control | dose: 400.0 mg/kg/injection, schedule: Q04DX003 (ip), vehicle: Klucel (hydroxypropylcellulose) (HPC) 105 % of control

Cc1ccc(NC(=O)C(F)(F)F)cc1F
inactive: dose: 50.0 mg/kg/injection, schedule: Q01DX009 (ip), vehicle: Klucel (hydroxypropylcellulose) (HPC) 93 % of control | [7] 104 % of control | [8] 97 % of control

CCCCCC(C)C1=NC(C)(C)CC(C)O1 (stereo not given)
inactive: dose: 5.0 mg/kg/injection, schedule: Q04DX003 (ip), vehicle: saline with Tween-80 101 % of control | dose: 10.0 mg/kg/injection, schedule: Q04DX003 (ip), vehicle: saline with Tween-80 95 % of control | dose: 20.0 mg/kg/injection, schedule: Q04DX003 (ip), vehicle: saline with Tween-80 108 % of control

CN(C)CCCNc1c2ccccc2nc2ccc(F)cc12
inactive: dose: 5.0 mg/kg/injection, schedule: Q01DX001 (ip), vehicle: saline 100 % of control | dose: 10.0 mg/kg/injection, schedule: Q01DX001 (ip), vehicle: saline 96 % of control | dose: 20.0 mg/kg/injection, schedule: Q01DX001 (ip), vehicle: saline 107 % of control

CCOC(=O)C(=CNc1ccccc1OC)C(=O)OCC
inactive: [1] 95 % of control | [2] 102 % of control | [3] 98 % of control | [4] 106 % of control | [5] 110 % of control | [9] 98 % of control | [6] 102 % of control

O=C1OCCN1NCc1ccc([N+](=O)[O-])o1
inactive: [10] 92 % of control | [11] 103 % of control | [12] 101 % of control

O=C1CCCN1C1CC2c3ccccc3C1c1cccc[n+]12 (stereo not given)
inactive: dose: 5.0 mg/kg/injection, schedule: Q01DX009 (ip), vehicle: saline sonified 94 % of control | dose: 10.0 mg/kg/injection, schedule: Q01DX009 (ip), vehicle: saline sonified 98 % of control | dose: 20.0 mg/kg/injection, schedule: Q01DX009 (ip), vehicle: saline sonified 97 % of control

Cc1ccc2c(c1)S(=O)(=O)N(C)C(c1ccccc1)=C2
inactive: dose: 100.0 mg/kg/injection, schedule: Q01DX001 (ip), vehicle: steriod suspending solution 96 % of control | dose: 200.0 mg/kg/injection, schedule: Q01DX001 (ip), vehicle: steriod suspending solution 105 % of control | dose: 400.0 mg/kg/injection, schedule: Q01DX001 (ip), vehicle: steriod suspending solution 86 % of control

Nc1ccc(O)cc1
inactive: dose: 12.5 mg/kg/injection, schedule: Q04DX003 (ip), vehicle: saline 92 % of control | dose: 25.0 mg/kg/injection, schedule: Q04DX003 (ip), vehicle: saline 95 % of control | dose: 35.0 mg/kg/injection, schedule: Q01DX Z (ip), vehicle: acid diluted with saline 92 % of control | dose: 35.0 mg/kg/injection, schedule: Q01DX Z (ip), vehicle: other 97 % of control | dose: 40.0 mg/kg/injection, schedule: Q01DX Z (ip), vehicle: methylcellulose (MC) 113 % of control | dose: 53.0 mg/kg/injection, schedule: Q01DX010 (sc), vehicle: saline 94 % of control | dose: 53.0 mg/kg/injection, schedule: Q01DX Z (ip), vehicle: acid diluted with saline 104 % of control | dose: 53.0 mg/kg/injection, schedule: Q01DX Z (ip), vehicle: other 103 % of control | dose: 53.0 mg/kg/injection, schedule: Q01DX Z (ip), vehicle: saline 98 % of control | dose: 80.0 mg/kg/injection, schedule: Q01DX Z (ip), vehicle: acid diluted with saline 108 % of control | dose: 80.0 mg/kg/injection, schedule: Q01DX Z (ip), vehicle: other 101 % of control | dose: 80.0 mg/kg/injection, schedule: Q01DX Z (ip), vehicle: saline 114 % of control | dose: 120.0 mg/kg/injection, schedule: Q01DX010 (sc), vehicle: saline 98 % of control | dose: 120.0 mg/kg/injection, schedule: Q01DX Z (ip), vehicle: acid diluted with saline 115 % of control | dose: 120.0 mg/kg/injection, schedule: Q01DX Z (ip), vehicle: other 114 % of control | dose: 120.0 mg/kg/injection, schedule: Q01DX Z (ip), vehicle: saline 112 % of control | dose: 160.0 mg/kg/injection, schedule: Q01DX Z (oral), vehicle: methylcellulose (MC) 113 % of control | dose: 212.0 mg/kg/injection, schedule: Q01DX013 (oral), vehicle: saline 109 % of control | dose: 320.0 mg/kg/injection, schedule: Q01DX Z (ip), vehicle: methylcellulose (MC) 107 % of control | dose: 320.0 mg/kg/injection, schedule: Q01DX Z (oral), vehicle: methylcellulose (MC) 108 % of control

O=C(Nc1ccc(CCO)cc1)c1ccc(F)cc1
inactive: [2] 102 % of control | [4] 93 % of control | [9] 93 % of control

COC(=O)CC(c1cccc2ccccc12)c1cccc2ccc3ccccc3c12 (stereo not given)
inactive: dose: 100.0 mg/kg/injection, schedule: Q04DX003 (ip), vehicle: DMSO 92 % of control | dose: 200.0 mg/kg/injection, schedule: Q04DX003 (ip), vehicle: DMSO 94 % of control | dose: 400.0 mg/kg/injection, schedule: Q04DX003 (ip), vehicle: DMSO 89 % of control

O=C(NC(=S)Nc1ccccc1C(=O)O)c1ccccc1
inactive: dose: 50.0 mg/kg/injection, schedule: Q01DX009 (ip), vehicle: saline sonified 96 % of control | dose: 100.0 mg/kg/injection, schedule: Q04DX003 (ip), vehicle: saline sonified 95 % of control | dose: 200.0 mg/kg/injection, schedule: Q01DX009 (ip), vehicle: saline sonified 94 % of control | dose: 200.0 mg/kg/injection, schedule: Q04DX003 (ip), vehicle: saline sonified 95 % of control

N#Cc1cn(-c2ccc(Cl)cc2)c2ncccc12
inactive: dose: 25.0 mg/kg/injection, schedule: Q01DX001 (ip), vehicle: saline 100 % of control | dose: 50.0 mg/kg/injection, schedule: Q01DX001 (ip), vehicle: saline 100 % of control | dose: 100.0 mg/kg/injection, schedule: Q01DX001 (ip), vehicle: saline with Tween-80 88 % of control | [10] 100 % of control | [11] 87 % of control | [12] 102 % of control

CC(C)=CCN(CC=C(C)C)CCC(C#N)(c1cccc2ccccc12)C(C)C (stereo not given)
inactive: dose: 25.0 mg/kg/injection, schedule: Q01DX009 (ip), vehicle: Klucel (hydroxypropylcellulose) (HPC) 101 % of control | [7] 93 % of control
